molecular target: T1, LINE1 reverse transcriptase (Homo sapiens, UniProt O00370); experiment: Stable artificial-intron Cis LINE1 reporter assay (HeLa Tet-On 3G, Firefly luciferase); format: cell-based; details: HeLa L1 artificial-intron reporter cells, doxycycline 500 ng/mL, 72 h, class symbols
T1 construct: expressed in transfected cells; host or cells: HeLa Tet-On 3G (Takara, cat no 631183)
Procedure, shortened: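 HeLa Tet-On 3G clone stably carrying a bi-directional doxycycline-inducible artificial-intron LINE1 reporter, plated at 8,000 cells/well onto serially diluted compound. Expression induced with 500 ng/mL doxycycline (final); Firefly luciferase luminescence (Dual-Glo) read 72 h after plating as LINE1 activity.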

T1 sequence (O00370 whole entry, looked up): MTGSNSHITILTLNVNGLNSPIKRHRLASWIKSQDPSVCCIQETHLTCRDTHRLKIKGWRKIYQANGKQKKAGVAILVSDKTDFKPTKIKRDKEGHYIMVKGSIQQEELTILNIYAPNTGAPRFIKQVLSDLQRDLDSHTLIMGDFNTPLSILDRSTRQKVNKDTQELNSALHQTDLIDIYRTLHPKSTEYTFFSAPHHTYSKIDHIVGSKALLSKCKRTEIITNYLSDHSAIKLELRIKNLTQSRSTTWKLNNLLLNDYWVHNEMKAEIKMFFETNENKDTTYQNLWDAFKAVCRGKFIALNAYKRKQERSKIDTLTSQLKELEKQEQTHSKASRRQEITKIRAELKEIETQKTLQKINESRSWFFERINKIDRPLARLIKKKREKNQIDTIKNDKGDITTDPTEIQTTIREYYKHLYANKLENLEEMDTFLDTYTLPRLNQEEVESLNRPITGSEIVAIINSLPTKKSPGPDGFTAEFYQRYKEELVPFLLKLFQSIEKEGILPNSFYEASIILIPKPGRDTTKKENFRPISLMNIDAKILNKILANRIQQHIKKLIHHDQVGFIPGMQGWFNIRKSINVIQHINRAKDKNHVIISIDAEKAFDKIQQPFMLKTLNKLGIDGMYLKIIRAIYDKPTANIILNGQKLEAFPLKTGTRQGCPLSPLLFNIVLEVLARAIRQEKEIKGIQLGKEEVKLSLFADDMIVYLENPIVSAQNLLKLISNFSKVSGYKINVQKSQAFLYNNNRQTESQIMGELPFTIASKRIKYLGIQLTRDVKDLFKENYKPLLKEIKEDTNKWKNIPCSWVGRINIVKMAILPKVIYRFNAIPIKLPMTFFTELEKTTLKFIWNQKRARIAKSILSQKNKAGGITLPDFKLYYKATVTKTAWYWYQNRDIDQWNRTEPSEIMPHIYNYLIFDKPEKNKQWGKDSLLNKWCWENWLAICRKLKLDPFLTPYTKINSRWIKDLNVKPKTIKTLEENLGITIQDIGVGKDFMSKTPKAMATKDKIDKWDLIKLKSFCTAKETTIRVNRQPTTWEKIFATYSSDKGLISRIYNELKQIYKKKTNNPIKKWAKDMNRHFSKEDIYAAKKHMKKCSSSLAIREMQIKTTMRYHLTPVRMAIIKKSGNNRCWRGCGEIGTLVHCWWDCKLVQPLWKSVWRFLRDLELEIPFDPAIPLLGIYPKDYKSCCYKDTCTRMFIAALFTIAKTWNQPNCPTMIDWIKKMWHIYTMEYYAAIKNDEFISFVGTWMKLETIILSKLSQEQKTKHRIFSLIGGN

How did the IC50 turn out when C#C[C@]1(CO)O[C@@H](n2cnc3c(N)ncnc32)C[C@@H]1O [Compound 27, (2R,3S,5R)-5-(6-amino-9H-purin-9-yl)-2-ethynyl-2-(hydroxymethyl) tetrahydrofuran-3-ol] was run?
The IC50 was at most 50 nM.

For CC[C@]1(CO)O[C@@H](n2cnc3c(N)nc(F)nc32)C[C@@H]1O [Compound 64, (2R,3S,5R)-5-(6-amino-2-fluoro-9H-purin-9-yl)-2-ethyl-2-(hydroxymethyl)tetrahydrofuran-3-ol], which IC50 is on record?
The IC50 was 50 to 100 nM.

How did the IC50 turn out when CC(C)[C@]1(CO)O[C@@H](n2ccc(N)nc2=O)C[C@@H]1O [Compound 55, 4-amino-1-[(2R,4S,5R)-4-hydroxy-5-(hydroxymethyl)-5-isopropyloxolan-2-yl] pyrimidin-2-one] was run?
Its IC50 is over 1000 nM.

How did the IC50 turn out when Nc1ccn([C@@H]2O[C@@](CO)(CCl)[C@@H](O)C2(F)F)c(=O)n1 [Compound 119, 4-amino-1-((2R,4R,5R)-5-(chloromethyl)-3,3-difluoro-4-hydroxy-5-(hydroxymethyl)tetrahydrofuran-2-yl)pyrimidin-2(1H)-one] was run?
Its IC50 is 50 to 100 nM.

Which IC50 does the source give for Nc1ccn([C@@H]2O[C@@](CO)(CBr)[C@@H](O)[C@@H]2F)c(=O)n1 [Compound 172] here?
Its IC50 is at most 50 nM.

For Cc1cn([C@H]2C[C@H](F)[C@](CO)(CCl)O2)c(=O)[nH]c1=O [Compound 7, 1-((2R,4S,5R)-5-(chloromethyl)-4-fluoro-5-(hydroxymethyl)tetrahydrofuran-2-yl)-5-methylpyrimidine-2,4(1H,3H)-dione], which IC50 is on record?
Its IC50 is over 1000 nM.

For [N-]=[N+]=N[C@]1(CO)O[C@@H](n2cc(F)c(N)nc2=O)C[C@@H]1O [Compound 61, 4-amino-1-((2R,4S,5R)-5-azido-4-hydroxy-5-(hydroxymethyl)tetrahydrofuran-2-yl)-5-fluoropyrimidin-2(1H)-one], which IC50 is on record?
Its IC50 is at most 50 nM.

Which IC50 does the source give for C=C[C@]1(CO)O[C@@H](n2cc(F)c(N)nc2=O)[C@@H](F)[C@@H]1O [Compound 76, 4-amino-1-[(2R,3S,4R,5R)-5-ethenyl-3-fluoro-4-hydroxy-5-(hydroxymethyl)oxolan-2-yl]-5-fluoropyrimidin-2-one] here?
The IC50 was at most 50 nM.

With Nc1ccn([C@H]2C[C@H](O)[C@](CO)(CF)O2)c(=O)n1 [Compound 45, 4-amino-1-((2R,4S,5R)-5-(fluoromethyl)-4-hydroxy-5-(hydroxymethyl)tetrahydrofuran-2-yl)pyrimidin-2(1H)-one] as the compound, how does the IC50 read?
Its IC50 is 50 to 100 nM.

For C#C[C@]1(CO)O[C@@H](n2cc(F)c(N)nc2=O)C[C@@H]1O [Compound 107, 4-amino-1-((2R,4S,5R)-5-ethynyl-4-hydroxy-5-(hydroxymethyl)tetrahydrofuran-2-yl)-5-fluoropyrimidin-2(1H)-one], which IC50 is on record?
The IC50 was at most 50 nM.

How did the IC50 turn out when O=c1nc(NO)ccn1[C@@H]1O[C@@](CO)(CCl)[C@@H](O)[C@H]1F [Compound 28, 1-((2R,3R,4R,5R)-5-(chloromethyl)-3-fluoro-4-hydroxy-5-(hydroxymethyl)tetrahydrofuran-2-yl)-4-(hydroxyamino)pyrimidin-2(1H)-one] was run?
Its IC50 is over 1000 nM.

C=CCC1(CO)O[C@@H](n2ccc(N)nc2=O)C[C@@H]1O (stereo partly drawn) [Compound 56, 1-((2R,4S)-5-allyl-4-hydroxy-5-(hydroxymethyl)tetrahydrofuran-2-yl)-4-aminopyrimidin-2(1H)-one] was tested. Which IC50 did it give?
Its IC50 is 100 to 250 nM.

C#C[C@]1(CO)O[C@@H](n2ccc(N)nc2=O)[C@H](F)[C@@H]1O [Compound 32, 4-amino-1-((2R,3R,4R,5R)-5-ethynyl-3-fluoro-4-hydroxy-5-(hydroxymethyl)tetrahydrofuran-2-yl)pyrimidin-2(1H)-one] was tested. Which IC50 did it give?
Its IC50 is over 1000 nM.

With CC[C@]1(CO)O[C@@H](n2cc(F)c(N)nc2=O)[C@@H](O)[C@@H]1O [Compound 78, 4-amino-1-((2R,3S,4S,5R)-5-ethyl-3,4-dihydroxy-5-(hydroxymethyl)tetrahydrofuran-2-yl)-5-fluoropyrimidin-2(1H)-one] as the compound, how does the IC50 read?
Its IC50 is 50 to 100 nM.

With [N-]=[N+]=N[C@]1(CO)O[C@@H](c2cc(I)c3c(N)ncnn23)C[C@@H]1O [Compound 161, (2R,3S,5R)-5-(4-amino-5-iodopyrrolo[2,1-f][1,2,4]triazin-7-yl)-2-azido-2-(hydroxymethyl)tetrahydrofuran-3-ol] as the compound, how does the IC50 read?
The IC50 was 50 to 100 nM.

For CC[C@]1(CO)O[C@@H](n2cc(F)c(N)nc2=O)C[C@@H]1O [Compound 82, 4-amino-1-((2R,4S,5R)-5-ethyl-4-hydroxy-5-(hydroxymethyl)tetrahydrofuran-2-yl)-5-fluoropyrimidin-2(1H)-one], which IC50 is on record?
The IC50 was at most 50 nM.

For CSC[C@]1(CO)O[C@@H](n2cc(F)c(N)nc2=O)[C@@H](F)[C@@H]1O [Compound 135], which IC50 is on record?
Its IC50 is over 1000 nM.

Which IC50 does the source give for Nc1ccn([C@H]2C[C@H](O)[C@](CO)(C(F)(F)F)O2)c(=O)n1 [Compound 21, 4-amino-1-((2R,4S,5R)-4-hydroxy-5-(hydroxymethyl)-5-(trifluoromethyl)tetrahydrofuran-2-yl)pyrimidin-2(1H)-one] here?
Its IC50 is 250 to 1000 nM.

With C=C[C@]1(CO)O[C@@H](n2ccc(N)nc2=O)[C@@H](F)[C@@H]1O [Compound 47, 4-amino-1-((2R,3S,4R,5R)-3-fluoro-4-hydroxy-5-(hydroxymethyl)-5-vinyltetrahydrofuran-2-yl)pyrimidin-2(1H)-one] as the compound, how does the IC50 read?
The IC50 was at most 50 nM.

With CCC[C@]1(CO)O[C@@H](n2ccc(N)nc2=O)C[C@@H]1O [Compound 60, 4-amino-1-((2R,4S,5R)-4-hydroxy-5-(hydroxymethyl)-5-propyltetrahydrofuran-2-yl)pyrimidin-2(1H)-one] as the compound, how does the IC50 read?
Its IC50 is over 1000 nM.

Which IC50 does the source give for Nc1nc(=O)n([C@@H]2OC(CO)(CO)[C@@H](O)[C@@H]2F)cc1F [Compound 177, 4-amino-5-fluoro-1-((2R,3S,4R)-3-fluoro-4-hydroxy-5,5-bis(hydroxymethyl)tetrahydrofuran-2-yl) pyrimidin-2(1H)-one] here?
The IC50 was over 1000 nM.

Which IC50 does the source give for CC[C@]1(COC(=O)C(C)C)O[C@@H](n2ccc(N)nc2=O)C[C@@H]1OC(=O)C(C)C [Compound 52, [(2R,3S,5R)-5-(4-amino-2-oxopyrimidin-1-yl)-2-ethyl-3-[(2-methylpropanoyl)oxy]oxolan-2-yl] methyl 2-methylpropanoate] here?
Its IC50 is 100 to 250 nM.

With C#C[C@]1(CO)O[C@@H](n2ccc(N)nc2=O)C[C@@H]1O [Compound 41, 4-amino-1-((2R,4S,5R)-5-ethynyl-4-hydroxy-5-(hydroxymethyl)tetrahydrofuran-2-yl)pyrimidin-2(1H)-one] as the compound, how does the IC50 read?
Its IC50 is at most 50 nM.

Which IC50 does the source give for Nc1ccn([C@H]2C[C@@H](O)[C@](CO)(CCl)O2)c(=O)n1 [Compound 59, 4-amino-1-[(2R,4R,5R)-5-(chloromethyl)-4-hydroxy-5-(hydroxymethyl)oxolan-2-yl] pyrimidin-2-one] here?
Its IC50 is over 1000 nM.

With C=C[C@]1(CO)O[C@@H](n2cc(F)c(N)nc2=O)C[C@@H]1O [Compound 74, 4-amino-5-fluoro-1-((2R,4S,5R)-4-hydroxy-5-(hydroxymethyl)-5-vinyltetrahydrofuran-2-yl)pyrimidin-2(1H)-one] as the compound, how does the IC50 read?
Its IC50 is at most 50 nM.

Nc1ccn([C@H]2C[C@H](O)[C@](CO)(C(F)F)O2)c(=O)n1 [Compound 110, 4-amino-1-((2R,4S,5R)-5-(difluoromethyl)-4-hydroxy-5-(hydroxymethyl)-tetrahydrofuran-2-yl)pyrimidin-2(1H)-one] was tested. Which IC50 did it give?
The IC50 was 250 to 1000 nM.

Which IC50 does the source give for Nc1nc(F)nc2c1ncn2[C@@H]1O[C@@](CO)(CF)[C@@H](O)[C@@H]1F [Compound 84] here?
The IC50 was over 1000 nM.

With O=c1ccn([C@@H]2OC(CO)(CO)[C@@H](O)[C@@H]2F)c(=O)[nH]1 [Compound 3, 1-((2R,3S,4R)-3-fluoro-4-hydroxy-5,5-bis(hydroxymethyl)tetrahydrofuran-2-yl)pyrimidine-2,4(1H,3H)-dione] as the compound, how does the IC50 read?
Its IC50 is over 1000 nM.

With Nc1nc(=O)n([C@@H]2O[C@@](CO)(CCl)[C@@H](O)[C@@H]2Cl)cc1F [Compound 137, 4-amino-1-[(2R,3S,4R,5R)-3-chloro-5-(chloromethyl)-4-hydroxy-5-(hydroxymethyl)oxolan-2-yl]-5-fluoropyrimidin-2-one] as the compound, how does the IC50 read?
Its IC50 is 250 to 1000 nM.

same assay, conditions: HeLa L1 artificial-intron reporter cells, doxycycline 500 ng/mL, 72 h, numeric bounds

O=c1ccn([C@H]2C[C@H](O)[C@](CO)(CCl)O2)c(=O)[nH]1 [Compound 34, 1-((2R,4S,5R)-5-(chloromethyl)-4-hydroxy-5-(hydroxymethyl)tetrahydrofuran-2-yl)pyrimidine-2,4(1H,3H)-dione] was tested. Which IC50 did it give?
The IC50 was over 30000 nM.

For Nc1nc(=O)n([C@H]2C[C@H](O)[C@](CO)(CCl)O2)cc1C(F)(F)F [Compound 71, 4-amino-1-((2R,4S,5R)-5-(chloromethyl)-4-hydroxy-5-(hydroxymethyl)tetrahydrofuran-2-yl)-5-(trifluoromethyl)pyrimidin-2(1H)-one], which IC50 is on record?
The IC50 was over 30000 nM.

Reference: patent US20230295212A1 (ROME Therapeutics, Inc., priority 2022, published 2023)
